# Results published in patent publication US10034880B2, “Ophthalmic suspension formulation” (Sumitomo Dainippon Pharma Co., Ltd., priority 2014, dated 2018).
# “Also recorded” adds a separate entry of the source. Like-named read-outs stand apart in the source and are kept apart here.
# Legend:
# [1] = Evaluation of transferability to posterior eye segment in rats (I-1) and (I-2); type: in vivo; conditions: SDT, rat, oral repetitive administration 1.0 mg/kg once a day for 21 days, 60 minutes after final administration
# Experimental: To both eyes of rat model of diabetes, ophthalmic suspension formulation A1 wherein Compound A was suspended in a generally-tolerated dose as a suspension formulation (200 mg/mL) or ophthalmic solution formulation Z wherein Compound A was dissolved (400 μg/mL) was administered in eyedrops in the amount of 5 μL for one eye (which is a maximum tolerated dose for eyedrops in rats) totally 5 times at intervals of 5 minutes. 60 minutes after the administration, each concentration of Compound A in cornea, retina and plasma was measured.
# Eyedrop has a limitation about tolerated volume of one shot, which is different from other dosage forms. Thus, the delivery amount of the drug to the target tissue which is obtained from eyedrop of a maximum tolerated dose is important. The tolerated volume varies depending on animal species, and the maximum volume in rats is 5 μL for one eye. […]
# In addition, Diabetic Retinopathy, INTECH, Chapter 15 “Prophylactic Medical Treatment of Diabetic Retinopathy”, Akihiro Kakehashi et al. disclose an experiment of oral repetitive administration of Compound A to SDT rats, wherein the dose of Compound A making the retinal capillary weakened and the VEGF production in retina inhibited is 1.0 mg/kg. […] 60 minutes after the final administration, each concentration of Compound A in cornea, retina and plasma was measured.
# [2] = Evaluation of transferability to posterior eye segment in rats (V); type: in vivo, SD rats; conditions: ophthalmic suspension formulations, eyedrops 5 μL for one eye once; 60 minutes after administration
# Experimental: To both eyes of SD rats, ophthalmic formulation I, ophthalmic formulation F, ophthalmic formulation G, ophthalmic formulation X1, ophthalmic formulation X2, ophthalmic formulation Y1, or ophthalmic formulation Y2 was administered in eyedrops in the amount of 5 μL for one eye once. 60 minutes after the administration, each concentration of Compound A in retina was measured.
# [3] = system: normal human retinal capillary endothelial cell (HREC); experiment: Cell migration assay: inhibition of facilitatory action of cell migration by VEGF stimulation; type: cell-based
# Experimental: The anti-VEGF action of Compound A was evaluated by an experimental method (cell migration assay) described in J Diabetes Complications. 2012; 26(5):369-77. In the experiment, a normal human retinal capillary endothelial cell (HREC) which was obtained from Cell System Co., LTD. was used, and a cell culture used herein was CS-C medium (Cell System Co., LTD.). […] As for Lucentis, its formulation stock solution was diluted with the cell culture, wherein the dilution ratio was 50 μL of the formulation stock solution per 4 mL of the cell culture, and the diluted solution was used in the experiment. The HREC was seeded in 6-well plate, and it was incubated until the confluency became 80-90%. 20-24 hours before assaying the cell migration by the VEGF stimulation, the cell culture was changed to a cell culture containing 0.1% fetal bovine serum. Then, the culture cell monolayer was wounded with a 200 μL pipette tip at one point per well, and the width of the wounds were measured with a microscope. […] About 18 hours after changing the cell culture, each width of the wounds was measured with a microscope, and the anti-VEGF action was evaluated by comparing the width with that of the just-wounded one.
# aldose reductase = aldose reductase (Homo sapiens, UniProt P15121); experiment: AR inhibitory action; type: biochemical
# [4] = system: VEGF production in retina; conditions: oral repetitive administration, SDT rats; cited from earlier work
molecule,measurement,setting,value
"O=C1C[C@@]2(C(=O)N1)C(=O)N(Cc1ccc(Br)cc1F)C(=O)c1cccn12 [Compound A, (R)-(−)-2-(4-bromo-2-fluorobenzyl)-1,2,3,4-tetrahydropyrrolo[1,2-a]pyrazine-4-spiro-3′-pyrrolidine-1,2′,3,5′-tetrone]",Kp at 60 min,"[1]; cornea and plasma (cornea/plasma ratio), read-out: concentration ratio cornea to plasma (plasma:cornea:retina, plasma = 1)",~1
same,Kp at 60 min,"[1]; retina and plasma (retina/plasma ratio), po, 1 mg/kg, read-out: retina/plasma ratio",~1
same,delivery to retina,[2],delivered to retina much more than the ophthalmic suspension formulation comprising Compound B or C
same,"action inhibiting the HREC migration, comparison","[3]; 1 nM Compound A, VEGF stimulation, about 18 hours",in the same level as that of 100 nM ((28 ng/mL)/L) Compound C; also recorded: more potent than that of 1000 nM ((320 ng/mL)/L) Compound B; also recorded: in the same level as Lucentis
same,Ki,aldose reductase,0.23 nM
same,"AR inhibitory action, action ratio relative to Compound A",aldose reductase; figure in brackets,1.0 ×
same,oral dose making the retinal capillary weakened and the VEGF production in retina inhibited,[4],1.0 mg/kg
"CC(/C=C1\SC(=S)N(CC(=O)O)C1=O)=C\c1ccccc1 [Compound B, [5-[(1Z,2E)-2-methyl-3-phenylallylidene]-4-oxo-2-thioxothiazolidin-3-yl]acetic acid]",delivery to retina,[2],hardly delivered to retina
"NC(=O)[C@@H]1C[C@]2(NC(=O)NC2=O)c2cc(F)ccc2O1 [Compound C, (2S,4S)-6-fluoro-2′,5′-dioxospiro[chroman-4,4′-imidazolidine]-2-carboxamide]",delivery to retina,[2],hardly delivered to retina
"Lucentis: anti-VEGF antibody formulation (general name: ranibizumab) (antibody, chains of the INN, looked up, V domains shown) VH: EVQLVESGGGLVQPGGSLRLSCAASGYDFTHYGMNWVRQAPGKGLEWVGWINTYTGEPTYAADFKRRFTFSLDTSKSTAYLQMNSLRAEDTAVYYCAKYPYYYGTSHWYFDVWGQGTLVTVSS VL: DIQLTQSPSSLSASVGDRVTITCSASQDISNYLNWYQQKPGKAPKVLIYFTSSLHSGVPSRFSGSGSGTDFTLTISSLQPEDFATYYCQQYSTVPWTFGQGTKVEIK",inhibition of HREC migration facilitated by VEGF stimulation,[3]; about 18 hours after changing the cell culture,inhibited the migration
